{"source": "patent US5807891A", "about": "“Antiviral ethers of aspartate protease substrate isosteres” (priority 1994, dated 1998)", "key": {"[1]": {"tested_on": "H9/HIV-1/IIIB cells cocultured with CEM-SS cells", "assay": "Antiviral activity in coculture of CEM-SS cells and permanently infected H9/HIV-1/IIIB cells, RT activity", "type": "cell-based", "details": "Human immunodeficiency virus 1, IIIB, 96 h; for inhibition at 0.0125 µM: 12.5 nM", "procedure": "The final concentration of free DMSO is less than 0.5%. When using cell lines: The cell lines are maintained in complete culture medium of the following composition: RPMI 1640 (GIBCO, Paisley, Scotland), supplemented with 10% foetal calf serum (SEROMED, Berlin, Germany), 10 mM 4-(2-hydroxyethyl)piperazine-1-ethanesulfonic acid(=HEPES) and 2 mM L-glutamine (AMIMED, Muttenz, Switzerland). […] The test compounds are tested as individual substances or as a combination of two active substances in defined concentration ratios. H9/HIV-1/IIIB cells are mixed, after having been washed twice and having been suspended in fresh medium, with CEM-SS cells in a ratio of 1:50. 100 μl of the cell mixture are dispensed into each well of 96-well tissue culture plates with the wells in each case containing 400 H9/HIV-1/IIIB cells and 2×10^4 CEM-SS cells. Immediately after the cells have been dispensed, two-fold serial dilutions of the test compounds are added (100 μl per well) in each case in sets of six. Instead of this, 100 μl of medium are added to each well for the virus control (VC); CEM-SS cells on their own (without H9/HIV-1/IIIB cells) are used as the control (CC). The final volume is 200 μl/well. […] The virus production is determined as the virus-associated activity of the reverse transcriptase (RT) in accordance with the following method, which has already been described above (see […]., et al., Antimicrob. Agent Chemother. 37(10), 2087-92 (1993)): When carrying out the measurement, 30 μl of reverse transcriptase cocktail are added to each well. The reverse transcriptase cocktail consists of 50 mM Tris (α,α,α-tris(hydroxymethyl)methylamine, Ultra pur, Merck, Germany), pH 7.8; 75 mM KCl, 2 mM dithiothreitol, 5 mM MgCl2; 0.1% Nonidet P-40 (detergent; Sigma, Switzerland), 0.8 mM EDTA, 10 μg/ml poly-A (Pharmacia, Uppsala, Sweden) and 0.16 μg/ml oligo(T)(=pdT(12-18), Pharmacia, Uppsala, Sweden) as template primer. The mixture is filtered through a 0.45 μm Acrodisc filter (Gelman Sciences Inc., Ann Arbor, U.S.A.) and stored at -20° C. […] After mixing, the plate is incubated at 37° C. for 1.5 h. 5 μl of the reaction mixture are transferred to DE81 paper (Whatman, one filter per well). The dried filters are washed three times for 5 min with 300 mM NaCl/25 mM trisodium citrate and then once with ethanol, and air-dried once again. The radioactivity on the filters is measured in a Packard Matrix 96-well counter (Packard, Zurich, Switzerland). The antiretroviral effect is given as the % reduction in RT activity as compared with the VC values. The activities of the individual compounds, and the combinations, mentioned in the title, in the coculture of the CEM-SS cell line and the permanently infected cell line H9/HIV-1/IIIB are determined using the method described above in association with the description of the pharmacological properties. The measurement result is expressed as % reduction of the reverse transcriptase (RT) activity. The results are presented in the following table; measurement results which confirm the occurrence of synergism are emphasized by underlining: […]"}, "[2]": {"tested_on": "HIV-1/LAV in human peripheral mononuclear blood cells", "assay": "Antiviral activity in peripheral mononuclear blood cells infected with HIV-1, cumulative RT activity", "type": "cell-based", "from_the_text": "For the experiments using peripheral mononuclear blood cells, the cells are isolated from the blood of healthy HIV-seronegative human subjects using a combination of leukaphoresis and counter-current centrifugal elutriation in accordance with known methods (see Alteri, E., et al., Antimicrob. Agent Chemother. 37(10), 2087-92 (1993)).\nThe lymphocytotrophic isolate HIV-1/LAV (LAV.04/A.301), for example, is used as the virus (see Science 220, 868-71 (1983)).\nThe final concentration of free DMSO is less than 0.5%.\nWhen peripheral mononuclear blood cells are used: The mixture of mononuclear cells (lymphocytes and monocytes), which is obtained as described above, is cultured, in the presence of 0.25 μg/ml phytohaemagglutinin (Wellcome Diagnostics, Temple Hill, Dartford, England), for two days in RPMI-1640 (GIBCO, Paisley, Scotland), 50 mU/ml penicillin, 50 μg/ml streptomycin (ANIMED, Muttenz, Switzerland), 2 mM L-glutamine (AMIMED, Muttenz, Switzerland) and 10 mM HEPES buffer (GIBCO, Paisley, Scotland). Successful activation is monitored by measuring the increase in cell size (scattergram, FCM analysis). The cells are resuspended in complete medium containing 10% human AB serum (Sigma, St. Louis, U.S.A.) and infected with HIV-1 for 6 h. After the viral adsorption, the cells are washed and resuspended in complete medium which is supplemented with 100 U/ml human recombinant IL-2 (Genzyme, Cambridge, U.S.A.). 9×10^4 cells are plated out per well (0.3 ml) in 96-well plates having U-shaped well bottoms. The antiviral compounds are added either alone or in combination to sets of five cell cultures in each case (pentaplicates) directly following the infection. Two thirds of the culture medium with or without antiviral compound(s) are replaced every three days. The test is concluded on day 13 after infection. The progress of the viral infection is measured by determining the RT activity as described above for the cell lines.\nThe activities of the individual compounds, and the combinations, specified in the title, in the peripheral mononuclear blood cell culture are determined using the method described above in association with the description of the pharmacological properties. The measurement result is expressed as the cumulative activity of the reverse transcriptase (RT), in cpm/1.25 μl (number of measured ^32 P disintegrations per 1.25 μl of test mixture and minute) on day 17 after the infection. […] The test compound(s) is/are re-added in associated with each change of the medium (on days 0, 3, 6, 10 and 13): […]"}, "HIV protease": {"tested_on": "HIV protease", "details": "cited from earlier work"}, "viral replication": {"tested_on": "viral replication", "details": "cited from earlier work"}, "[3]": {"tested_on": "CD4 lymphocytes in the blood", "details": "AIDS patients; cited from earlier work"}, "[4]": {"details": "in vivo, po; cited from earlier work"}, "[5]": {"details": "in vivo; cited from earlier work"}}, "note": "Read-outs that look alike come from different tables or passages of the source."}
{"smiles": "COCCNC(=O)[C@@H](NC(=O)[C@H](Cc1ccc(OC)c(OC)c1OC)C[C@H](O)[C@H](Cc1ccccc1)NC(=O)OC(C)(C)C)C(C)C", "note": "[Example 47, 5(S)-(Boc-Amino)-4(S)-hydroxy-6-phenyl-2(R)-[(2,3,4-trimethoxyphenyl)methyl]hexanoyl-(L)-Val-N-(2-methoxyethyl)amide]", "values": [{"measurement": "inhibition at 0.003125 µM", "setting": "[1]; 3.125 nM, coculture, day 4, read-out: % Inhibition of the RT activity by Example 47 title compound alone", "value": 2.7, "unit": "%"}, {"measurement": "inhibition at 0.00625 µM", "setting": "[1]; 6.25 nM, coculture, day 4, read-out: % Inhibition of the RT activity by Example 47 title compound alone", "value": 1.3, "unit": "%"}, {"measurement": "inhibition at 0.0125 µM", "setting": "[1]; coculture, day 4, read-out: % Inhibition of the RT activity by Example 47 title compound alone", "value": 52, "unit": "%"}, {"measurement": "Cumulative RT activity on day 17 after the infection", "setting": "[2]; Example 47 concentration 7.5 alone (unit not given)", "value": 7909, "unit": "cpm/μl"}, {"measurement": "Cumulative RT activity on day 17 after the infection", "setting": "[2]; Example 47 concentration 15 alone (unit not given)", "value": 9132, "unit": "cpm/μl"}, {"measurement": "Cumulative RT activity on day 17 after the infection", "setting": "[2]; Example 47 concentration 30 alone (unit not given)", "value": 8457, "unit": "cpm/μl"}, {"measurement": "Cumulative RT activity on day 17 after the infection", "setting": "[2]; Example 47 concentration 60 alone (unit not given)", "value": 1823, "unit": "cpm/μl"}, {"measurement": "Cumulative RT activity on day 17 after the infection", "setting": "[2]; Example 47 concentration 120 alone (unit not given)", "value": 49, "unit": "cpm/μl"}]}
{"smiles": "CC(C)(C)NC(=O)[C@@H]1CN(Cc2cccnc2)CCN1C[C@@H](O)C[C@@H](Cc1ccccc1)C(=O)N[C@H]1c2ccccc2C[C@H]1O", "note": "[Indinavir]", "values": [{"measurement": "inhibition at 0.0125 µM", "setting": "[1]; coculture, day 4, read-out: % Inhibition of the RT activity by Indinavir alone", "value": 3.2, "unit": "%"}, {"measurement": "inhibition at 0.025 µM", "setting": "[1]; 25 nM, coculture, day 4, read-out: % Inhibition of the RT activity by Indinavir alone", "value": 59.7, "unit": "%"}]}
{"smiles": "CC(C)(C)NC(=O)[C@@H]1C[C@@H]2CCCC[C@@H]2CN1C[C@@H](O)[C@H](Cc1ccccc1)NC(=O)[C@H](CC(N)=O)NC(=O)c1ccc2ccccc2n1", "note": "[Saquinavir, N-tert-butyldecahydro-2-[2(R)-hydroxy-4-phenyl-3(S)-[[N-2-quinolylcarbonyl-L-asparaginyl]amino]butyl]-(4aS,8aS)-isoquinoline-3(S)-carboxamide]", "values": [{"measurement": "inhibition at 0.00626 µM", "setting": "[1]; read-out: % Inhibition of the RT activity by Saquinavir alone", "value": 93.8, "unit": "%"}, {"measurement": "inhibition at 0.00078 µM", "setting": "[1]; read-out: % Inhibition of the RT activity by Saquinavir alone, 0.78 nM, coculture, day 4", "value": 6.6, "unit": "%"}, {"measurement": "inhibition at 0.00156 µM", "setting": "[1]; read-out: % Inhibition of the RT activity by Saquinavir alone, 1.56 nM, coculture, day 4", "value": 14.7, "unit": "%"}, {"measurement": "inhibition at 0.003125 µM", "setting": "[1]; read-out: % Inhibition of the RT activity by Saquinavir alone, 3.125 nM, coculture, day 4", "value": 39.3, "unit": "%"}, {"measurement": "effect on HIV protease in vitro", "setting": "HIV protease", "value": "inhibitory effect"}, {"measurement": "viral replication in cell experiments", "setting": "viral replication", "value": "suppressed viral replication"}, {"measurement": "surrogate marker (titre of the CD4 lymphocytes in the blood)", "setting": "[3]", "value": "first positive effects"}, {"measurement": "blood levels", "setting": "[4]", "value": "useful blood levels were achieved"}, {"measurement": "blood levels", "setting": "[5]", "value": "useful blood levels were also achieved"}]}
